Results reported in patent US9016829B2, “Ink composition, ink set, and image forming method” (FUJIFILM Corporation, priority 2011, dated 2015).

Assay: Solubility with respect to pure water
Format: physicochemical
Conditions: 25° C.

CC(C)(O)C(=O)c1ccc(OCCO)cc1 [IRGACURE 2959]
solubility with respect to pure water: water (25° C.): 7.6 g/l)
